The source of these data is patent publication US12404241B2 (Celgene Corporation, priority 2018, dated 2025).

What is called DC50 is the concentration at which degradation of the target reaches its halfway point.

For the assay, the target named is T1, AR (Homo sapiens, UniProt P10275).
T1 construct: endogenous in cells; host or cells: VCaP cells
T1 sequence (P10275 1-920): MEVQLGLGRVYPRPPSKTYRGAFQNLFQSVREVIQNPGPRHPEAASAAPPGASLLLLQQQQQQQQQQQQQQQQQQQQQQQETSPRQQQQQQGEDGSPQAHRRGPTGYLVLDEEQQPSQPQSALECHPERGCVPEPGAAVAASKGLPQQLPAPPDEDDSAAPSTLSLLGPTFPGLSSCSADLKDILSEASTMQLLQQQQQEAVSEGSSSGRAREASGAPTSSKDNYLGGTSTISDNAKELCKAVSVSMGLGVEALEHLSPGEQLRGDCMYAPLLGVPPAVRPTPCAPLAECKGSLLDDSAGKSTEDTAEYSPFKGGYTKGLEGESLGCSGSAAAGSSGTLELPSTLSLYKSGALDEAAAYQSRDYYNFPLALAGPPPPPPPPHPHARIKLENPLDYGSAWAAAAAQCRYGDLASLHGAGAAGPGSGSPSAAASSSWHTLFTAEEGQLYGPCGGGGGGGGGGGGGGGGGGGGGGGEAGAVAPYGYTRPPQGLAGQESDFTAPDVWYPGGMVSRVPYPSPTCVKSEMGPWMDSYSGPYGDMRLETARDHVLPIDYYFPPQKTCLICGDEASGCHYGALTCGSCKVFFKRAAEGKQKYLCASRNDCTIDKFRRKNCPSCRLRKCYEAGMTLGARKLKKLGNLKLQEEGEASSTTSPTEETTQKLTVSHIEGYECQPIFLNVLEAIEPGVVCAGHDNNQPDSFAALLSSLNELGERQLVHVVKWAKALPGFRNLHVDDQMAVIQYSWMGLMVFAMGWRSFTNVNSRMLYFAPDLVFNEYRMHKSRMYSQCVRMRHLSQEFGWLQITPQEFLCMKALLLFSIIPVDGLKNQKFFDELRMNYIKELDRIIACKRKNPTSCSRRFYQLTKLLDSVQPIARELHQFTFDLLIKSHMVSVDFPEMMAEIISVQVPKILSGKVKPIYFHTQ
The assay can be described thus: VCAP AR Degradation Assay. It counts as cell-based. The following applies: for Y (AR degradation efficiency, % of DMSO control): class symbols *; for DC50: class symbols A-C, read-out: DC50. As for the experimental part: VCAP AR Degradation Assay. Test compounds were pre-dispensed into a Corning CellBind 96-well clear bottom plate (Cat #3300) using an acoustic dispenser to make a 10-point concentration series at 1:3 dilution for each compound. The final top concentration of each compound was 5 μM. DMSO at a final concentration of 0.1% was used as a control. VCaP cells cultured in DMEM with 8% fetal bovine serum (FBS) were seeded at 50K cells per well in a 200 μL volume into the compound plate and incubated at 37° C. in a CO2 incubator for 24 h. The medium was carefully removed from the cells and the plate was placed on ice. One hundred μL of ice-cold 1x cell lysis buffer from Cell Signaling Technologies (Cat #9803) was added to each well of the cells and the plate was incubated at 4° C. on a shaker for 1 h. Fifteen μL of cell lysate was used for AR ELISA detection using a PathScan Total Sandwich AR ELISA kit (Cell Signaling Technology, Cat #12580). AR levels in compound-treated wells were normalized to that of DMSO control and expressed as percent of control (PoC) (y). A Four Parameter Logistic Model (Sigmoidal Dose-Response Model) was used to determine the compound's DC50, and EC50, using the following equation:
[formula] • A=YMin (lowest AR level normalized to DMSO control in response to compound treatment, as determined by curve fit) • B=YMax (maximum AR level as determined by curve fit) • C=EC50 • D=Hill Slope • x=compound concentration • EC50=the concentration of compound when y=(YMax−YMin)/2 • DC50=the concentration of the compound when y=50% of DMSO control (50% AR degradation) • y=AR protein level normalized to DMSO control
The lowest measured AR level normalized to DMSO control in response to compound treatment, termed Y value, was used to characterize the compound-mediated AR degradation efficiency.

The structures appear in SMILES notation. Structures can show the parent of a compound that is named as a salt.

Regarding `CCc1cc(N2C(=S)N(c3ccc(C#N)c(C(F)(F)F)c3)C(=O)C2(C)C)cnc1OCCN1CCN(CC(=O)Nc2cc(Cl)cc(NC3CCC(=O)NC3=O)c2)CC1` (centres unmarked) [Example 69, N-(3-chloro-5-(2,6-dioxopiperidin-3-ylamino)phenyl)-2-(4-(2-(5-(3-(4-cyano-3-(trifluoromethyl)phenyl)-5,5-dimethyl-4-oxo-2-thioxoimidazolidin-1-yl)-3-ethylpyridin-2-yloxy)ethyl)piperazin-1-yl)acetamide], the “Y (AR degradation efficiency, % of DMSO control)” value is listed as “* (0<Y<=25%)” and the DC50 is under 100 nM.
In the same order, the values of `CC(C)c1cc(N2C(=S)N(c3ccc(C#N)c(C(F)(F)F)c3)C(=O)C2(C)C)ccc1OCCN1CCN(CC(=O)Nc2cccc(NC3CCC(=O)NC3=O)c2)CC1` (centres unmarked) [Example 17, hydrochloride] are “* (0<Y<=25%)” and under 100 nM.
Take `C[C@@H]1CN(CCOc2ccc(N3C(=S)N(c4ccc(C#N)c(Cl)c4)C(=O)C3(C)C)cc2C2CC2)C[C@H](C)N1CC(=O)Nc1cc(NC2CCC(=O)NC2=O)ccc1F` (stereo partly drawn) [Example 221, 2-((2S,6R)-4-(2-(4-(3-(3-chloro-4-cyanophenyl)-5,5-dimethyl-4-oxo-2-thioxoimidazolidin-1-yl)-2-cyclopropylphenoxy)ethyl)-2,6-dimethylpiperazin-1-yl)-N-(5-(2,6-dioxopiperidin-3-ylamino)-2-fluorophenyl)acetamide]: the “Y (AR degradation efficiency, % of DMSO control)” value is listed as “** (25%<Y<=35%)” and the half-maximal degradation concentration (DC50) is under 100 nM.
For the compound `CCc1cc(N2C(=S)N(c3ccc(C#N)c(C(F)(F)F)c3)C(=O)C2(C)C)ccc1OCCN1CCN(CC(=O)Nc2cccc(NC3CCC(=O)NC3=O)c2)C[C@H]1C` (some centres unmarked) [Example 44], the “Y (AR degradation efficiency, % of DMSO control)” value is given as “* (0<Y<=25%)” and the DC50 was under 100 nM.
In the same order, the values of `CC1(C)C(=O)N(c2cnc(C#N)c(C(F)(F)F)c2)C(=S)N1c1ccc(OCCN2CCN(CC(=O)Nc3cccc(NC4CCC(=O)NC4=O)c3)CC2)c(CCF)c1` (centres unmarked) [Example 161, 2-(4-(2-(4-(3-(6-cyano-5-(trifluoromethyl)pyridin-3-yl)-5,5-dimethyl-4-oxo-2-thioxoimidazolidin-1-yl)-2-(2-fluoroethyl)phenoxy)ethyl)piperazin-1-yl)-N-(3-(2,6-dioxopiperidin-3-ylamino)phenyl)acetamide] are “* (0<Y<=25%)” and under 100 nM.
In the same order, the values of `CCc1cc(N2C(=S)N(c3ccc(C#N)c(C(F)(F)F)c3)C(=O)C2(C)C)cc(F)c1OCCN1C[C@@H](C)N(CC(=O)Nc2cccc(NC3CCC(=O)NC3=O)c2)[C@@H](C)C1` (stereo partly drawn) [Example 248, 2-((2S,6R)-4-(2-(4-(3-(4-cyano-3-(trifluoromethyl)phenyl)-5,5-dimethyl-4-oxo-2-thioxoimidazolidin-1-yl)-2-ethyl-6-fluorophenoxy)ethyl)-2,6-dimethylpiperazin-1-yl)-N-(3-(2,6-dioxopiperidin-3-ylamino)phenyl)acetamide] are “* (0<Y<=25%)” and under 100 nM.
In the same order, the values of `CC1(C)C(=O)N(c2cnc(C#N)c(C(F)(F)F)c2)C(=S)N1c1ccc(OCCN2CCN(CC(=O)Nc3cccc(NC4CCC(=O)NC4=O)c3)CC2)c(Cl)c1` (centres unmarked) [Example 5, hydrochloride] are “* (0<Y<=25%)” and under 100 nM.
For the compound `N#Cc1ccc(N2C(=O)C3(CCOC3)N(c3ccc(OCCN4CCN(CC(=O)Nc5cc(Cl)cc(NC6CCC(=O)NC6=O)c5)CC4)c(F)c3)C2=S)cc1C(F)(F)F` (single isomer, unassigned) [Example 54, N-(3-chloro-5-(2,6-dioxopiperidin-3-ylamino)phenyl)-2-(4-(2-(4-(3-(4-cyano-3-(trifluoromethyl)phenyl)-4-oxo-2-thioxo-7-oxa-1,3-diazaspiro[4.4]nonan-1-yl)-2-fluorophenoxy)ethyl)piperazin-1-yl)acetamide], the “Y (AR degradation efficiency, % of DMSO control)” value is “* (0<Y<=25%)” and the 50% degradation concentration (DC50) was under 100 nM.
In the same order, the values of `CCc1cc(N2C(=S)N(c3ccc(C#N)c(C(F)(F)F)c3)C(=O)C2(C)C)ccc1OCCN1CCN(CC(=O)Nc2cccc(NC3CCC(=O)NC3=O)c2)[C@H](CC)C1` (stereo partly drawn) [Example 260, 2-((R)-4-(2-(4-(3-(4-cyano-3-(trifluoromethyl)phenyl)-5,5-dimethyl-4-oxo-2-thioxoimidazolidin-1-yl)-2-ethylphenoxy)ethyl)-2-ethylpiperazin-1-yl)-N-(3-(2,6-dioxopiperidin-3-ylamino)phenyl)acetamide] are “* (0<Y<=25%)” and 100 to 500 nM.
As for `C[C@@H]1CN(CCOc2ccc(N3C(=S)N(c4ccc(C#N)c(C(F)(F)F)c4)C(=O)C3(C)C)cc2CC(F)F)CCN1CC(=O)Nc1cc(NC2CCC(=O)NC2=O)ccc1F` (stereo partly drawn) [Example 156, 2-((R)-4-(2-(4-(3-(4-cyano-3-(trifluoromethyl)phenyl)-5,5-dimethyl-4-oxo-2-thioxoimidazolidin-1-yl)-2-(2,2-difluoroethyl)phenoxy)ethyl)-2-methylpiperazin-1-yl)-N-(5-(2,6-dioxopiperidin-3-ylamino)-2-fluorophenyl)acetamide], the “Y (AR degradation efficiency, % of DMSO control)” value is “* (0<Y<=25%)” and the half-maximal degradation concentration (DC50) was under 100 nM.
In the same order, the values of `CC(C)c1cc(N2C(=S)N(c3cnc(C#N)c(C(F)(F)F)c3)C(=O)C2(C)C)ccc1OCCN1C[C@@H](C)N(CC(=O)Nc2cccc(NC3CCC(=O)NC3=O)c2)[C@@H](C)C1` (stereo partly drawn) [Example 180, 2-((2S,6R)-4-(2-(4-(3-(6-cyano-5-(trifluoromethyl)pyridin-3-yl)-5,5-dimethyl-4-oxo-2-thioxoimidazolidin-1-yl)-2-isopropylphenoxy)ethyl)-2,6-dimethylpiperazin-1-yl)-N-(3-(2,6-dioxopiperidin-3-ylamino)phenyl)acetamide] are “* (0<Y<=25%)” and under 100 nM.
For `CCc1cc(N2C(=S)N(c3cnc(C#N)c(C(F)(F)F)c3)C(=O)C2(C)C)ccc1OCCN1CCN(CC(=O)Nc2cc(C#N)cc(NC3CCC(=O)NC3=O)c2)[C@H](C)C1` (stereo partly drawn) [Example 155, N-(3-cyano-5-(2,6-dioxopiperidin-3-ylamino)phenyl)-2-((R)-4-(2-(4-(3-(6-cyano-5-(trifluoromethyl)pyridin-3-yl)-5,5-dimethyl-4-oxo-2-thioxoimidazolidin-1-yl)-2-ethylphenoxy)ethyl)-2-methylpiperazin-1-yl)acetamide], the “Y (AR degradation efficiency, % of DMSO control)” value is listed as “* (0<Y<=25%)” and the 50% degradation concentration (DC50) is under 100 nM.
In the same order, the values of `CCc1cc(N2C(=S)N(c3cnc(C#N)c(C(F)(F)F)c3)C(=O)C23CCC3)ccc1OCCN1CCN(CC(=O)Nc2cccc(NC3CCC(=O)NC3=O)c2)[C@H](C)C1` (stereo partly drawn) [Example 108, 2-((R)-4-(2-(4-(7-(6-cyano-5-(trifluoromethyl)pyridin-3-yl)-8-oxo-6-thioxo-5,7-diazaspiro[3.4]octan-5-yl)-2-ethylphenoxy)ethyl)-2-methylpiperazin-1-yl)-N-(3-(2,6-dioxopiperidin-3-ylamino)phenyl)acetamide] are “* (0<Y<=25%)” and under 100 nM.
